Experimental data: publication PMC6990646 (ACS Omega, 2020)
Converted amounts (≈) assume the structure as drawn. “And” between values parts separate entries of the source, which are not always exact repeats. Equal values may be shown once.

Legend:
HAV HM175 = assay: Plaque reduction assay against HAV HM175; type: cell-based, hepatitis A virus HM 175; conditions: for IC50: hepatitis A virus HM 175, plaque reduction; for mean % of reduction, hepatitis A virus HM 175: nontoxic dose of compound
[1] = test system: ED-43/SG-Feo (VYG) replicon of HCV genotype 4a; assay: Antiviral bioassay against ED-43/SG-Feo; type: cell-based; conditions: for mean % of reduction, HCVcc genotype 4: nontoxic dose of compound
HAdV7 = assay: Plaque reduction assay against adenovirus 7; type: cell-based, human adenovirus type 7; conditions: nontoxic dose of compound
Vero cell line = assay: Cytotoxicity test on Vero cell line; type: cell-based; conditions: herpes simplex virus table; host cells Vero
FRHK-4 cell line = assay: Cytotoxicity test on FRHK-4 cell line; type: cell-based; conditions: hepatitis A virus HM 175 columns; host cells FRHK4
HSV-1 = conditions: for IC50: herpes simplex virus, plaque reduction; for mean % of reduction, herpes simplex virus: nontoxic dose of compound
Huh 7.5 cell line = assay: Cytotoxicity test on Huh 7.5 cell line; type: cell-based; conditions: HCVcc genotype 4 columns; host cells Huh 7.5
CBV4 = assay: Plaque reduction assay against coxsackievirus B4; type: cell-based; conditions: nontoxic dose of compound
ADV7 = conditions: cited from earlier work

SMILES | IC50 (HAV HM175) | mean % of reduction, HCVcc genotype 4 [1] | mean % of reduction, adenovirus type 7 (HAdV7) | CC50 (Vero cell line) | CC50 (FRHK-4 cell line) | IC50 (HSV-1) | mean % of reduction, herpes simplex virus (HSV-1) | IC50 ([1]; HCVcc genotype 4) | CC50 (Huh 7.5 cell line) | mean % of reduction, hepatitis A virus HM 175 (HAV HM175) | mean % of reduction, coxsackievirus B4 (CBV4) | EC50 (ADV7)
Cc1ccc(S(=O)(=O)Nc2nc(N)c(-c3nc4ccccc4s3)c(-c3ccc(Cl)cc3)n2)cc1 [14h, N-(4-Amino-5-(benzo[d]thiazol-2-yl)-6-(4-chlorophenyl)pyrimidin-2-yl)-4-methylbenzenesulfonamide] | 74 µg/mL (≈ 146 µM) | 20 ± 0.5% | 40 ± 0.7% | 230 µg/mL (≈ 453 µM) | 200 µg/mL (≈ 394 µM) | 71 µg/mL (≈ 140 µM) | 70% and 70 ± 2.0% |  |  |  |  | 
O=C(CNc1nc(NS(=O)(=O)c2ccccc2)ncc1-c1nc2ccccc2s1)c1ccc(Cl)cc1 [9b, N-(5-(Benzo[d]thiazol-2-yl)-4-((2-(4-chlorophenyl)-2-oxoethyl)amino)pyrimidin-2-yl)benzenesulfonamide] | 86 µg/mL (≈ 160 µM) | 60 ± 1.2% | 40 ± 0.8% | 240 µg/mL (≈ 448 µM) | 230 µg/mL (≈ 429 µM) | 74 µg/mL (≈ 138 µM) | 70% and 70 ± 1.5% | 86 µg/mL (≈ 160 µM) | 250 µg/mL (≈ 466 µM) |  |  | 
Cc1ccc(C(=O)CNc2nc(NS(=O)(=O)c3ccccc3)ncc2-c2nc3ccccc3s2)cc1 [9c, N-(5-(Benzo[d]thiazol-2-yl)-4-((2-(p-tolyl)-2-oxoethyl)amino)pyrimidin-2-yl)benzenesulfonamide] |  | 10 ± 0.6% | 10 ± 0.2% |  |  |  | 30 ± 1.0% |  |  | 40 ± 1.2% |  | 
Nc1nc(NS(=O)(=O)c2ccccc2)ncc1-c1nc2ccccc2s1 [5a, N-(4-Amino-5-(Benzo[d]thiazol-2-yl)pyrimidin-2-yl)benzenesulfonamide] | 100 µg/mL (≈ 261 µM) | 30 ± 0.8% | 20 ± 0.5% |  | 220 µg/mL (≈ 574 µM) |  | 20 ± 0.9% |  |  |  |  | 
Nc1nc2c(ncn2COCCO)c(=O)[nH]1 [acyclovir, Acyclovir, reference compound] |  |  |  | 28 µg/mL (≈ 124 µM) |  |  |  |  |  |  |  | 
CC(=O)CNc1nc(NS(=O)(=O)c2ccccc2)ncc1-c1nc2ccccc2s1 [compound 7, N-(5-(Benzo[d]thiazol-2-yl)-4-((2-oxopropyl)amino)pyrimidin-2-yl)benzenesulfonamide] |  | 10 ± 0.3% | 10 ± 0.2% |  |  |  | 10 ± 0.5% |  |  | 10 ± 0.2% | 13.3 ± 0.4% | 
COc1ccc(-c2nc(NS(=O)(=O)c3ccccc3)nc(N)c2-c2nc3ccccc3s2)cc1 [14e, N-(4-Amino-5-(benzo[d]thiazol-2-yl)-6-(4-methoxyphenyl)pyrimidin-2-yl)benzenesulfonamide] |  | 10 ± 0.3% | 10 ± 0.1% |  |  |  | 16.7 ± 0.1% |  |  | 13.3 ± 0.2% | 20 ± 0.2% | 
Cc1ccc(S(=O)(=O)Nc2ncc(-c3nc4ccccc4s3)c(N)n2)cc1 [5b, N-(4-Amino-5-(benzo[d]thiazol-2-yl)pyrimidin-2-yl)-4-methylbenzenesulfonamide] |  | 20 ± 0.8% | 20 ± 0.3% |  |  |  | 40 ± 1.4% |  |  | 40 ± 1.0% |  | 
CSc1nc(NS(=O)(=O)c2ccccc2)nc(N)c1-c1nc2ccccc2s1 [17a, N-(4-Amino-5-(benzo[d]thiazol-2-yl)-6-(methylthio)pyrimidin-2-yl)benzenesulfonamide] |  | 10 ± 0.1% | 10 ± 0.2% |  |  |  | 10 ± 0.3% |  |  | 10 ± 0.2% | 10 ± 0.1% | 
Nc1nc(NS(=O)(=O)c2ccccc2)nc(-c2ccc(Cl)cc2)c1-c1nc2ccccc2s1 [14c, N-(4-Amino-5-(benzo[d]thiazol-2-yl)-6-(4-chlorophenyl)pyrimidin-2-yl)benzenesulfonamide] |  | 30 ± 0.7% | 30 ± 0.6% |  | 230 µg/mL (≈ 466 µM) |  | 30 ± 0.8% |  |  |  |  | 
NC(=O)c1ncn([C@@H]2O[C@H](CO)[C@@H](O)[C@H]2O)n1 [ribavirin] |  |  |  |  |  |  |  |  |  |  |  | 27.8 µg/mL (≈ 114 µM)
COc1ccc(-c2nc(NS(=O)(=O)c3ccc(C)cc3)nc(N)c2-c2nc3ccccc3s2)cc1 [14j, N-(4-Amino-5-(benzo[d]thiazol-2-yl)-6-(4-methoxyphenyl)pyrimidin-2-yl)-4-methylbenzenesulfonamide] |  | 10 ± 0.3% | 10 ± 0.1% |  |  |  | 10 ± 0.1% |  |  | 10 ± 0.1% | 10 ± 0.1% | 
Cc1ccc(-c2nc(NS(=O)(=O)c3ccccc3)nc(N)c2-c2nc3ccccc3s2)cc1 [14d, N-(4-Amino-5-(benzo[d]thiazol-2-yl)-6-p-tolylpyrimidin-2-yl)benzenesulfonamide] |  | 10 ± 0.1% | 10 ± 0.1% |  |  |  | 10 ± 0.1% |  |  | 20 ± 0.2% | 30 ± 0.2% | 
Cc1ccc(S(=O)(=O)Nc2nc(N)c(-c3nc4ccccc4s3)c(-c3ccccc3)n2)cc1 [14f, N-(4-Amino-5-(benzo[d]thiazol-2-yl)-6-phenylpyrimidin-2-yl)-4-methylbenzenesulfonamide] |  | 10 ± 0.1% | 10 ± 0.2% |  |  |  | 10 ± 0.1% |  |  | 10 ± 0.1% | 10 ± 0.2% | 
Cc1ccc(-c2nc(NS(=O)(=O)c3ccc(C)cc3)nc(N)c2-c2nc3ccccc3s2)cc1 [14i, N-(4-Amino-5-(benzo[d]thiazol-2-yl)-6-p-tolylpyrimidin-2-yl)-4-methylbenzenesulfonamide] |  | 10 ± 0.2% | 10 ± 0.1% |  |  |  | 10 ± 0.1% |  |  | 10 ± 0.2% | 10 ± 0.1% | 
CSc1nc(NS(=O)(=O)c2ccc(C)cc2)nc(N)c1-c1nc2ccccc2s1 [17b, N-(4-Amino-5-(benzo[d]thiazol-2-yl)-6-(methylthio)pyrimidin-2-yl)-4-methylbenzenesulfonamide] |  | 10 ± 0.1% | 10 ± 0.1% |  |  |  | 10 ± 0.2% |  |  | 10 ± 0.1% | 20 ± 0.2% | 
COc1ccc(-c2nc(N)nc(N)c2-c2nc3ccccc3s2)cc1 [13c, 5-(Benzo[d]thiazol-2-yl)-6-(4-methoxyphenyl)pyrimidine-2,4-diamine] |  | 10 ± 0.1% | 10 ± 0.2% |  |  |  | 10 ± 0.3% |  |  | 10 ± 0.1% | 10 ± 0.2% | 
Nc1nc(NS(=O)(=O)c2ccccc2)nc(-c2ccc(F)cc2)c1-c1nc2ccccc2s1 [14b, N-(4-Amino-5-(benzo[d]thiazol-2-yl)-6-(4-fluorophenyl)pyrimidin-2-yl)benzenesulfonamide] |  | 10 ± 0.6% | 30 ± 0.5% | 250 µg/mL (≈ 524 µM) | 220 µg/mL (≈ 461 µM) | 66 µg/mL (≈ 138 µM) | 70 ± 1.3% |  |  |  |  | 
Cc1ccc(-c2nc(N)nc(N)c2-c2nc3ccccc3s2)cc1 [13b, 5-(Benzo[d]thiazol-2-yl)-6-p-tolylpyrimidine-2,4-diamine] |  | 10 ± 0.2% | 10 ± 0.1% |  |  |  | 10 ± 0.1% |  |  | 10 ± 0.1% | 10 ± 0.1% | 
Nc1nc(NS(=O)(=O)c2ccccc2)nc(-c2ccccc2)c1-c1nc2ccccc2s1 [14a, N-(4-Amino-5-(benzo[d]thiazol-2-yl)-6-phenylpyrimidin-2-yl)benzenesulfonamide] |  | 10 ± 0.1% | 10 ± 0.2% |  |  |  | 10 ± 0.2% |  |  | 10 ± 0.1% | 10 ± 0.1% | 
Cc1ccc(S(=O)(=O)Nc2nc(N)c(-c3nc4ccccc4s3)c(-c3ccc(F)cc3)n2)cc1 [14g, N-(4-Amino-5-(benzo[d]thiazol-2-yl)-6-(4-fluorophenyl)pyrimidin-2-yl)-4-methylbenzenesulfonamide] | 81 µg/mL (≈ 165 µM) | 20 ± 0.7% | 40 ± 0.8% | 240 µg/mL (≈ 488 µM) | 230 µg/mL (≈ 468 µM) | 50 µg/mL (≈ 102 µM) | 80% and 80 ± 2.4% |  |  |  |  | 
